Here are results for 21 molecules from patent US5574055A, “Oxazolidinone derivatives” (Hoffmann-La Roche Inc., priority 1993, dated 1996).

Counter-ions that a name gives are not always drawn.

The target of the test is monoamine oxidase (MAO). In words: MAO inhibition in vitro (brain). In kind it is biochemical. Conditions: rat brain homogenate, 14C-5-HT or 14C-PEA as substrate (which one not given), pH 7.4, 37° C., 30 min pre-incubation, 10 min incubation. On the procedure: The MAO inhibiting activity of the compounds in accordance with the invention can be determined using standard methods.
The preparations to be tested were investigated in the in vitro test described hereinafter, which was based on the method of R. J. Wurtmann and J. A. Axelrod [Biochem. Pharmac. 12, 1439-41 (1963).
Isolated rat brains are homogenized in 0.1 molar potassium phosphate buffer (pH 7.4) in the ratio 1:9 (weight/volume), whereupon the homogenate is diluted with the same buffer in the ratio 1:4 (volume/volume) and stored at -20° C. A mixture of the following composition is used for the incubation:
100 μl of 1M phosphate buffer (pH 7.4);
100 μl of solubilizate of the substance to be tested in water or in aqueous dimethyl sulfoxide;
50 μl of rat brain homogenate; and as the substrate
50 μl of ^14 C-labelled serotonin (5-HT) or ^14 C-phenylethylamine (PEA), in each instance 100,000 decay per minute, corresponding to a final concentration of 2·10^-4 mol/l and, respectively, 2·10^-5 mol/l.
A pre-incubation at 37° C. is effected for 30 minutes prior to the addition of the substrate. The incubation (in the presence of the substrate) is likewise effected at 37° C. and lasts for 10 minutes. The reaction is stopped by the addition of 200 μl of 2N hydrochloric acid. In order to extract the deaminated product, the mixture is shaken for 10 minutes with 5 ml of diethyl ether or with 5 ml of n-heptane depending on whether 5-HT or PEA is used as the substrate, whereupon the mixture is centrifuged, the aqueous phase is frozen in a dry-ice bath and the organic phase is transferred into a counting glass.
The activity of the MAO in comparison to the control homogenates is determined on the basis of the β-counter values.
Under the above test conditions the activity is linear with respect to time and to the concentration of the homogenizate. The IC50 values were determined graphically as a log of the concentration-activity curve. The IC50 was defined as that concentration of a substance to be tested which reduces the activity of the MAO upon the substrate 5-HT or PEA by 50%.
For orientation: IC50 means the concentration needed to halve the response being measured. Read a high IC50 as a need for much substance. With `O=C1OC(CO)CN1c1ccc(C2CCCCC2)cc1` (racemic) [Example 1, (RS)-3-(4-Cyclohexyl-phenyl)-5-hydroxymethyl-oxazolidin-2-one], the IC50 amounted to 8.5 nM.
Under `COCC1CN(c2ccc(C3CCCCC3)cc2)C(=O)O1` (racemic) [Example 2, (RS)-3-(4-Cyclohexyl-phenyl)-5-methoxymethyl-oxazolidin-2-one] stands 2 nM.
Under `COCC1CN(c2ccc(C3CCC(=O)CC3)cc2)C(=O)O1` (racemic) [Example 7, (RS)-3-[4-(4-Oxo-cyclohexyl)-phenyl]-5-methoxymethyl-oxazolidin-2-one] stands 10 nM.
With `COCC1CN(c2ccc([C@H]3CC[C@H](O)CC3)cc2)C(=O)O1` (mixture of isomers) [Example 8, (RS)-3-[4(trans-4-Hydroxy-cyclohexyl)-phenyl]-5-methoxymethyl-oxazolidin-2-one], the IC50 is 8.4 nM.
Consider `COCC1CN(c2ccc([C@H]3CC[C@H](OCCC#N)CC3)cc2)C(=O)O1` (mixture of isomers) [Example 30, (RS)-3-[trans-4-[4-(5-Methoxymethyl-2-oxo-Oxazolidin-3-yl)-phenyl]cyclohexyloxy]-propionitrile], for which the IC50 was 5 nM.
Turning to `COCC1CN(c2ccc([C@H]3CC[C@H](OC(C)=O)CC3)cc2)C(=O)O1` (mixture of isomers) [Example 33, Acetic acid (RS)-trans-4-[4-(5-methoxymethyl-2-oxo-oxazolidin-3-yl)-phenyl]-cyclohexylester], the IC50 came out at 10 nM.
Then `COCC1CN(c2ccc(C3CCC(CO)CC3)cc2)C(=O)O1` (racemic) [Example 38, (RS)-3-[4-(Cis- and trans-4-Hydroxymethyl-cyclohexyl)-phenyl]-5-methoxymethyl-oxazolidin-2-one], with 3 nM; and `COCC1CN(c2ccc([C@H]3CC[C@H](CC#N)CC3)cc2)C(=O)O1` (mixture of isomers) [Example 49, (RS)-[trans-4-[4-(5-Methoxymethyl-2-oxo-oxazolidin-3-yl)-phenyl]-cyclohexyl]-acetonitrile], with 0.9 nM.
Turning to `COCC1CN(c2ccc(C3CCN(C(=O)/C=C/c4ccccc4)CC3)cc2)C(=O)O1` (racemic) [Example 59, (RS)-4-[4-(5-Methoxymethyl-2-oxo-oxazolidin-3-yl)-phenyl]-1-(1-oxo-3-phenyl-2,(E)-propenyl)-piperidine], the 50% inhibitory concentration (IC50) came out at 10 nM.
Then `COCC1CN(c2ccc([C@H]3CC[C@H](OCC#N)CC3)cc2)C(=O)O1` (mixture of isomers) [Example 66, (RS)-[trans-4-[4-(5-Methoxymethyl-2-oxo-oxazolidin-3-yl)-phenyl]-cyclohexyloxy]-acetonitrile], with 2 nM; and `COC[C@H]1CN(c2ccc(OCC[C@@H](O)C(F)(F)F)cc2)C(=O)O1` [Befloxaton, reference compound], with 1.9 nM.
`COC[C@H]1CN(c2ccc(C3CCCCC3)cc2)C(=O)O1` [Example 6, (R)-3-(4-Cyclohexyl-phenyl)-5-methoxymethyl-oxazolidin-2-one] came in with a concentration for half-maximal inhibition (IC50) of 0.1 nM.
Then `COC[C@H]1CN(c2ccc(C3CCC(=O)CC3)cc2)C(=O)O1` [Example 14, (R)-3-[4-(4-Oxo-cyclohexyl)-phenyl]-5-methoxymethyl-oxazolidin-2-one], with 1 nM.
`COC[C@H]1CN(c2ccc([C@H]3CC[C@H](O)CC3)cc2)C(=O)O1` [Example 15, (R)-3-[4-(trans-4-Hydroxy-cyclohexyl)-phenyl]-5-methoxymethyl-oxazolidin-2-one]: the midpoint of inhibition, the IC50, lay at 8.5 nM.
Then `COCC1CN(c2ccc([C@H]3CC[C@H](OC)CC3)cc2)C(=O)O1` (stereo partly drawn) [Example 16], with 6 nM.
Under `COCC1CN(c2ccc(C3CC4C=CC3C4)cc2)C(=O)O1` (stereo not drawn) [Example 18, 3-[(1RS,2SR,4RS)-4-Bicyclo[2.2.1]hept-5-en-2-yl-phenyl]-5-methoxymethyl-oxazolidin-2-one (R:S=1:1)] stands 9 nM.
Under `COCC1CN(c2ccc(C3CCC(C)(O)CC3)cc2)C(=O)O1` (stereo not drawn) [Example 39, (RS)-3-[4-(cis or trans-4-Hydroxy-4-methyl-cyclohexyl)-phenyl]-5-methoxymethyl-oxazolidin-2-one] stands 4 nM.
`COC[C@H]1CN(c2ccc([C@H]3CC[C@H](CC#N)CC3)cc2)C(=O)O1` [Example 50] returned an IC50 of 1 nM.
`COC[C@H]1CN(c2ccc([C@H]3CC[C@H](OCC#N)CC3)cc2)C(=O)O1` [Example 63, (R)-[trans-4-[4-(5-Methoxymethyl-2-oxo-oxazolidin-3-yl)-phenyl]-cyclohexyloxy]-acetonitrile] displayed an IC50 of 1.6 nM.
Then `COCC1CN(c2ccc([C@H]3CC[C@H](OCCN)CC3)cc2)C(=O)O1` (stereo partly drawn) [Example 68, (RS)-3-[trans-4-[4-(5-Methoxymethyl-2-oxo-oxazolidin-3-yl)-phenyl]-cyclohexyloxy]ethanamine.HCl], with 74 nM.
Then `COC[C@H]1CN(c2ccc([C@H]3CC[C@H](OCCCN)CC3)cc2)C(=O)O1` [Example 71, (R)-3-[trans-4-(3-Amino-propoxy)-cyclohexyl]-phenyl]-5-methoxymethyl-oxazolidin-2-one hydrochloride], with 33 nM.
